Experiment [1] has as its system UM-SCC-22A-derived xenograft tumors. The experiment in a line: HPV(−) UM-SCC-22A-derived xenograft tumor growth in SCID mice. It counts as in vivo. Particulars: UM-SCC-22A xenografts, 3.76 μg peptide, absence/presence of cisplatin 3.5 mg/kg every 3 days for 2 weeks. As to the method:
To determine whether HPV(+) compared to HPV(−) HNSCC cells are more sensitive to stress-mediated growth inhibition in response to chemotherapeutic drugs, it was first established HPV(+) UM-SCC-47- and HPV(−) UM-SCC-22A-derived xenograft tumors in SCID mice. After the xenograft-derived tumors were ˜75-100 mm^3, the mice were treated with cisplatin (3.5 mg/kg) for two weeks, which is below its maximum tolerated doses (van Moorsel et al, 1999). Then, tumor volumes were measured at days 0 and 14 of treatment. […] After tumor growth measurements in the mice were taken, the tumors were surgically removed and the effects of cisplatin on CerS1-6 mRNA were measured by qRT-PCR.
Eight arginine residues (R8) were included on the N-terminus to enhance cell penetration of the E2F5 peptide (Rancher and Ryu, 2015).
(§1) In vivo studies. Severe combined immunodeficient (SCID) mice were purchased from Jackson Laboratories. Age- and sex-matched mice were used. All animal protocols were approved by the Institutional Animal Care and Use Committee at the Medical University of South Carolina. UM-SCC22A or UM-SCC47 cells (75,000) were implanted into the flanks of SCID mice (n=5-8 mice). When the tumors were palpable, the mice were treated every three days with 3.5 mg/kg cisplatin, 20 mg/kg C18-pyr-cer, or corresponding amount of vehicle control and/or 3.76 μg E2F5-peptide or scrambled control peptide. Tumor volume was measured using calipers. At the end of the 14-day treatment, the mice were euthanized and tumor tissues were collected (Sentelle et al, 2007; Saddoughi et al, 2013).

Experiment [2] concerns UM-SCC-22A cells. As to the method:
Trypan blue exclusion assay. Cells were seeded in 6-well plates, and allowed to adhere for 20 h. After treatments (for 24 h), medium containing dead cells was pelleted with trypsinized cells, then re-suspended in 1× PBS then counted in a hemocytometer after addition of trypan blue dye (Sigma-Aldrich) at a 1:10 dilution.

Experiment [3] has as its system UM-SCC-22A cells. Nature of the experiment: Mitophagy in UM-SCC-22A cells (live cell imaging, colocalization of LTG and MTR). It counts as cell-based. As to the method:
Laser scanning confocal microscopy. For live cell imaging, cultured cells were incubated with 500 nM of mitotracker […] and 500 nM lysotracker green in DMSO for 30 min at 37° C. […] An Olympus FV10i confocal microscope was used for imaging. 543- and 488-nm channels were used for visualizing red or green fluorescence, respectively, with pinholes set to 1.0 Airy units. At least three random fields were imaged for each sample ([…] et al, 2012).

Experiment [4] deals with T1, Drp1 (Homo sapiens, UniProt O00429).
T1 construct: Western blotting using whole cell (UM-SCC-22A) lysates versus mitochondria-enriched fractions; endogenous in cells; host or cells: UM-SCC-22A
The experiment in a line: Drp1 recruitment to mitochondria in HPV(−) UM-SCC-22A cells (Western blotting of mitochondria-enriched fractions). It counts as cell-based. Particulars: 5 uM peptide, 20 uM C18-pyr-cer, 1.5 hours. As to the method:
(§2) Images were quantified using FIJI.
(§3) Immunoblotting. Cells were lysed in RIPA buffer plus protease inhibitor cocktail on ice for 15 minutes then centrifuged. 30ug of protein from the supernatant were run on Criterion™ TGX™ Precast Gels (Bio-Rad).
Cell fractionation. Cells were treated with 40 uM cisplatin or vehicle for eight hours, 20 uM C18-pyr-cer or vehicle and/or 5 uM scr-pept or E2F5-pept for 1.5 hours. Mitochondria isolation kit (ThermoFisher Scientific) was used as described by the manufacturer.
A general note: Immunoblotting shows a protein as a band on a membrane.

The subject of experiment [5] is UM-SCC-22A xenograft-derived tumors. The following applies: peptide plus cisplatin versus Scr-pept with/without cisplatin.
Text: Data are means±SD from three independent experiments. *p<0.05 as determined by Student's t test. […] Data are means±SD from three independent experiments. *p<0.05 as determined by Student's t test. […] Data are means±SD from three independent experiments. *p<0.05 as determined by Student's t test.
as §1

The target of experiment [6] is T2, Drp1-E2F5 complex (Homo sapiens, UniProt O00429).
T2 construct: from tissue; host or cells: UM-SCC-22A xenograft tumours grown in SCID mice
The experiment in a line: Drp1-E2F5 association by PLA in tumor tissue sections. It counts as in vivo, mice. The following applies: peptide plus cisplatin versus Scr-pept with/without cisplatin. As to the method:
as §2
(§4) Proximity ligation assay. Proximity ligation assays were performed using Duolink in situ red kit (Sigma) per manufacturer's instructions, then analyzed as described (Panneer-Selvam et al, 2015).
In vivo studies. […] Age- and sex-matched mice were used. […] Tumor volume was measured using calipers.

Experiment [7] concerns UM-SCC-22A cells. Nature of the experiment: Growth inhibition in culture, IC50 determination by MTT assay. Particulars: UM-SCC-22A (HPV−) cells, 48 h; read-out: IC50 (concentration that inhibited growth by 50%). It counts as cell-based. As to the method: (§5) IC50 determination by MTT assay. Cells were plated in 96-well plates and allowed to adhere for 20 h, then treated with the indicated concentrations of drug. After 48 h treatment, the MTT assay (ATCC) was performed as described previously (Sentelle et al, 2012).
A general note: Formazan colour is commonly taken as a measure of viable cells.

The subject of experiment [8] is UM-SCC-47 cells. The description is as above. It counts as cell-based. As to the method:
as §5

Experiment [9] has as its system UM-SCC-47 cells. Nature of the experiment: Mitophagy in UM-SCC-47 cells (Sea Horse oxygen consumption rate, TEM). It counts as cell-based. As to the method: Measurement of cellular respiration using Seahorse XF analyzer. Cells were plated in a Seahorse Biosciences 96-well plate and allowed to adhere for 20 hours. They were then treated with 20 uM C18-pyr-cer or equivalent amount of vehicle (EtOH) for two hours, then oxygen consumption rate was measured using a Seahorse XF96 (Seahorse Biosciences) as described by the manufacturer (Sentelle et al, 2012).
Ultra-structure analysis using transmission electron microscopy.

Experiment [10] deals with Drp1. Nature of the experiment: Drp1 oligomerization by Western blotting without reducing agents. It counts as cell-based. Particulars: HPV(+) UM-SCC47 cells. As to the method:
FIGS. 7A-F. E2F5/Drp1 complex enhances HPV-E7/ceramide-dependent lethal mitophagy. (A) UM-SCC47 cells were treated with cisplatin or C18-pyr-cer and Western blotting was performed with cell lysates in the absence of reducing agents in the lysing buffer to detect monomeric and dimeric Drp1 protein abundance compared to vehicle-treated controls. Actin was used as a loading control. (B-C) Cell death was assessed by trypan blue exclusion assay in UM-SCC47 cells expressing dominant-negative Drp1 mutant (K38A-DRP1) and treated with C18-pyr-cer (B) or cisplatin (C) compared to vector-transfected controls. […] (D-E) Association between E2F5 and Drp1 in response to ceramide stress (C18-pyr-cer) was measured in UM-SCC-47 cells using PLA (D) or immunoprecipitation followed by Western blotting (E) with anti-Drp1 or anti-E2F5 antibodies. IgG was used as a control. […] PLA signals were quantified as described by the manufacturer using the PLA quantification software. […] Effects of siRNA-mediated HPV-E6/E7 knockdown on pRB, HPV-E7 and p53 protein abundance were also confirmed by Western blotting compared to Scr-siRNA-transfected controls in the absence/presence of C18-pyr-cer (right panel). Total RB was used a loading control (Rb band, upper panel).
Immunoblotting. Cells were lysed in RIPA buffer plus protease inhibitor cocktail on ice for 15 minutes then centrifuged. […]

The test system of experiment [11] is Drp1-E2F5 complex. The experiment in a line: Drp1-E2F5 association in UM-SCC-47 cells (PLA, co-immunoprecipitation). It counts as cell-based. As to the method: as §4
Co-immunoprecipitation. Cells were lysed in 500 ul Pierce™ IP lysis/wash buffer (ThermoFisher) with protease inhibitor cocktail (Sigma) on ice for 15 minutes. 350 μg of protein were used with SureBeads™ Protein A Magnetic Beads (BioRad) per manufacturer's instructions, using 10 μg antibody or corresponding normal IgG control (SCBT).

The subject of the next experiment is Drp1-MFF association. The experiment in a line: Drp1-MFF association by PLA in UM-SCC47 cells. It counts as cell-based. As to the method: (§6) FIGS. 9A-D. E2F5 enhances Drp1 translocation to mitochondria and association with MFF to induce HPV-E7/ceramide-dependent mitophagy. (A) Effects of stable knockdown of E2F5 using shRNA on DRP1-MFF association with/without C18-pyr-cer were measured by PLA using anti-DRP1 and anti-MFF antibodies compared to Scr-shRNA-transfected UM-SCC-47 controls. […] (B) HPV(−) UM-SCC1A cells transiently transfected with exogenous E2F5 or empty vector (vec) were used to measure the association between Drp1 and MFF in the absence/presence of ceramide stress by PLA using anti-DRP1 and anti-MFF antibodies. […] (C) Effects of shRNA-mediated E2F5 knockdown on Drp1 localization to mitochondria in the absence/presence of C18-pyr-cer were assessed in whole cell lysates (UM-SCC-47) versus mitochondria-enriched fractions using Western blotting. (D) Effects of transient reconstitution of E2F5^WT or E2F5^Δ84-177 proteins in UM-SCC47 cells, which were stably transfected with E2F5-shRNA, on Drp1 abundance, were measured by Western blotting using anti-Drp1 antibody, in whole cell lysates versus mitochondria-enriched fractions.
as §4

The subject of experiment [12] is Drp1. The experiment in a line: Drp1 recruitment to mitochondria in HPV(+) UM-SCC-47 cells (Western blotting of mitochondria-enriched fractions). It counts as cell-based. As to the method: as §6, §3
Cell fractionation. […]

T1 sequence (O00429 whole entry): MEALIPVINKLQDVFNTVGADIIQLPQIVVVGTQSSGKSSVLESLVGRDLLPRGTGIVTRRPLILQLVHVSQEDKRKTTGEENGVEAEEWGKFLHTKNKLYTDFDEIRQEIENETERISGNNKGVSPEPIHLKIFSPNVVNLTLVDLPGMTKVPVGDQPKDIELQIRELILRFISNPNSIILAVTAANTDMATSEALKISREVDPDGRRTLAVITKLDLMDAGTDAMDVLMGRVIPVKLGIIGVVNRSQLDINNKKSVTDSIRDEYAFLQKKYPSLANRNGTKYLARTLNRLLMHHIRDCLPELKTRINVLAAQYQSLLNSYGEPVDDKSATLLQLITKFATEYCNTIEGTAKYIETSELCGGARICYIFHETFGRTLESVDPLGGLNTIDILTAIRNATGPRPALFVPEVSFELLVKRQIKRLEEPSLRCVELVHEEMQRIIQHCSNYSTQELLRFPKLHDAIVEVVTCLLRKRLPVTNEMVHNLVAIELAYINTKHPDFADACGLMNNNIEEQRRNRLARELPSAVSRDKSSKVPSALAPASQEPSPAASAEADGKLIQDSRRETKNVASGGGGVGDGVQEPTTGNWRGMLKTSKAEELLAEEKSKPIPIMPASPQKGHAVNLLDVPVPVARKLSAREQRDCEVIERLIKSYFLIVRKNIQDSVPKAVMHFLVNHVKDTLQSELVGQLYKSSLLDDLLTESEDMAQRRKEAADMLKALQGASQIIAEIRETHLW
T2 sequence (O00429 whole entry, one chain of several): as the sequence (O00429 whole entry) above

Turning to “Biotin-RRRRRRRR-ELDQQKLWLQQSIKNVMDDSINNRFSYVTHED [E2F5-pept]”, in [1], the tumor growth entry was “almost completely inhibited tumor growth”. For the same substance, in the experiment with UM-SCC-22A cells [2] (peptide plus C18-pyr-cer, compared to scr-pept), the C18-pyr-cer-induced cell death entry is “largely increased”. In addition, the cisplatin-induced cell death entry in the experiment with UM-SCC-22A cells [2] (peptide plus cisplatin, compared to scr-pept) is “largely increased”. For the same substance, in the experiment with UM-SCC-22A cells [2] (with/without C18-pyr-cer), the “peptide-enhanced cell death under shRNA-mediated Drp1 knockdown” value is reported as “attenuated”. The “C18-pyr-cer-induced mitophagy (colocalization of LTG and MTR)” value in the experiment on UM-SCC-22A cells [3] (peptide plus C18-pyr-cer) is “enhanced C18-pyr-cer-induced mitophagy”. The “ceramide-induced Drp1 recruitment to mitochondria” value on Drp1 [4] is listed as “enhanced ceramide-induced Drp1 recruitment to mitochondria”. The “mitophagy in tumors (TEM)” value in experiment [5] was “increased mitophagy”. At Drp1-E2F5 complex [6], the “co-localization of Drp1 and E2F5 in tumors (PLA)” value is “increased”.
Turning to C18-pyridinium-ceramide [C18-pyr-cer], the IC50 in the experiment on UM-SCC-22A cells [7] amounted to 5 µM; with UM-SCC-47 cells [8] (UM-SCC-47 (HPV+) cells, 48 h, read-out: IC50 (concentration that inhibited growth by 50%)) it was 1.6 µM. In addition, the “sensitivity for drug-induced growth inhibition/cell death, UM-SCC-47 compared to UM-SCC-22A cells” value with UM-SCC-47 cells [8] (cells in culture) is reported as ~3 fold. Also, the “number of mitochondria and autophagosomes by TEM” value in the experiment with UM-SCC-47 cells [9] (HPV(+) UM-SCC-47 compared to HPV(−) UM-SCC-22A cells) is “a decreased number mitochondria and an increased number of autophagosomes”. In the experiment with UM-SCC-47 cells [9] (UM-SCC-47 cells, Sea Horse, versus vehicle), the “mitophagy detected by decreased oxygen consumption rate” value is recorded as “increased mitophagy”. Moreover, the “Drp1 oligomerization and/or activation” value in the experiment with Drp1 [10] is “Drp1 oligomerization and/or activation was observed”. Besides, the “Drp1-E2F5 association by PLA” value with Drp1-E2F5 complex [11] (versus controls) is given as “increased Drp1-E2F5 association”. Also, in the experiment on Drp1-E2F5 complex [11] (versus vehicle control), the “Drp1-E2F5 association by co-immunoprecipitation” value was “increased association between Drp1 and E2F5”. The “Drp1-MFF association by PLA” value with Drp1-MFF association is reported as “induced Drp1-MFF association”. Also, the “recruitment of Drp1 to mitochondria” value in the experiment with Drp1 [12] is “induced recruitment of Drp1 to mitochondria”. Also, in the experiment with UM-SCC-22A cells [3] (5-10 μM, 24-48 h), the “lethal mitophagy in HPV(−) cells” value was “induces lethal mitophagy”.

These data come from patent US20190255146A1, “POLYPEPTIDES FOR IMPROVED RESPONSE TO ANTI-CANCER THERAPY” (MUSC FOUNDATION FOR RESEARCH DEVELOPMENT, priority 2016, published 2019).
